Key:
[1] = target: T1, human p85 SH2 domain (Homo sapiens, UniProt P27986); assay: SH2 domain / pY peptide binding assay (ELISA-based, 96 well plate), p85 SH2; settings: for Ki: Ki calculated from IC50 by the expanded equation, Table II; for IC50: cloned human SH2 domain fusion protein, 0.1 uM biotinylated pY peptide, Table I
T1 construct: SH2 domain of human p85 (amino acids 321-440); made in house; host or cells: E. coli (pGEX-3X)
Procedure: (§1) The inhibitory activity of compounds at the different human SH2 domains was determined in vitro using SH2 domains expressed as fusion proteins in E. coli. The SH2 domains used herein were the human forms of the src SH2 domain, Grb2 SH2 domain, lck SH2 domain, fyn SH2 domain, SH-PTP2 SH2 domain, p85 SH2 domain and hcp SH2 domain.
(§2) Fusion proteins having the structure GST-X-SH2 were prepared as described in the GST gene fusion kit system available from Pharmacia (New Jersey). GST is the tagging sequence glutathione s-transferase epitope (SEQ ID NO: 8) for fyn, Grb2 and SH-PTP2 and is the tagging sequence glutathione s-transferase epitope (SEQ ID NO: 9) for p85. SH2 refers to the SH2 domains of fyn, Grb2, p85 and SH-PTP2 which were expressed and purified using glutathione Sepharose 4B (Pharmacia) according to "Current Protocols in Molecular Biology", ed. FM Ausubel et al., pub. John Wiley and Sons, Inc., (1995), p 16.7.1. X is an appropriate linker, preferably of 6 to 21 base pairs, used to keep the SH2 construct in frame and complement cloning. As such, the sequence of X is not critical. One skilled in the art can readily construct the appropriate linker. The DNA sequence encoding each GST-X-SH2 fusion protein was designed such that the indicated restriction sites (BamH1 and EcoRI) flank the SH2 region. The vector used in the instant experiments was the E. coli expression vector pGEX-2T (Pharmacia) for fyn, Grb2 and SH-PTP2, and pGEX-3X (Pharmacia) for p85. Each of these vectors result in SH2 constructs having additional C-terminal amino acids as described below.
Human p85 SH2 domain: The sequence encoding the SH2 domain of human p85 (amino acids 321-440) (Skolnik, E. et al., Cell 65, 83-90 (1991)) was cloned into the BamHI and EcoRI sites of the expression vector pGEX-3X. The SH2 domain including the additional C-terminal amino acids asparagine-serine-serine (SEQ ID NO: 11)was cloned by PCR techniques known to those skilled in the art to yield the expressed fusion protein GST-X-p85.
(§3) The binding assays for the SH2 domains and pY peptides were performed in an ELISA-based 96 well plate assay. In Millipore 96 well filter plates, hydrophilic Durapore® (pore size 0.65um Cat. No. MADVN6550), was added 2 ul (50% suspension) of Protein-G Sepharose (available from Pharmacia of N.J. Cat. No. 17-0618-01) and either 2 ul of 2 mg/ml of MAB178. (for gp120/SH2 domain fusion proteins src, lck and hcp) or 0.25 ul of anti-GST polyclonal antisera (available from Pharmacia of N.J.) (for GST/SH2 domain fusion proteins fyn, Grb2, p85 and SH-PTP2). 10 pmol of the subject SH2 domain fusion protein were added to their respective wells. The volume was brought to 100 ul with TBS-T (tris buffered saline plus 0.05% tween-20), incubated and shaken at room trmperature for 1 hr. then washed 1x with TBS-T (4°C). 90 ul of TBS-T were then added to each well. Specific pY biotinylated peptides were diluted to a concentration of 1.0 uM in TBS-T (these peptides can be obtained from Bachem Bioscience of Pennsylvania, Genosys Biotechnologies of Texas and California Peptide Research of California). 10 ul was aliquoted per well to yield a final concentration of 0.1 uM (approx, the Kd for each SH2 domain/peptide pair) and a final volume of 100 ul. The assay plates were incubated until equilibrium binding was attained (3 hr at 4°C with shaking). The assay plates were washed 2 X per well TBS-T (4°C), then 100 ul of SABC (Strepavidin biotinylated horseradish peroxidase complex, available from the Zymed corporation of California cat. no. 93-0043, 1 drop reagent A (streptavidin) and 1 drop of reagent B (AH-biotin conjugated-horseradish peroxidase) per 10 ml of TBS-T, incubated at 37°C for 30 minutes, then cooled to 4°C) was added per well, then incubated at 4°C for 30-60 minutes. The plates were then washed 4 X with TBS-T (4°C) (250 ul/well)/wash). 100 ul of 1 mg/ml OPD (o-phenyldiamine, Sigma Chemical Corporation, St. Louis Missouri) in Citrate Buffer was added per well. […]

[2] = target: T2, human Grb2 SH2 domain (Homo sapiens, UniProt P62993); assay: SH2 domain / pY peptide binding assay (ELISA-based, 96 well plate), Grb2 SH2; settings: for Ki: Ki calculated from IC50 by the expanded equation, Table II; for IC50: cloned human SH2 domain fusion protein, 0.1 uM biotinylated pY peptide, Table I
T2 construct: SH2 domain of human Grb2 (amino acids 58-159); made in house; host or cells: E. coli (pGEX-2T)
T2 sequence (P62993 58-159): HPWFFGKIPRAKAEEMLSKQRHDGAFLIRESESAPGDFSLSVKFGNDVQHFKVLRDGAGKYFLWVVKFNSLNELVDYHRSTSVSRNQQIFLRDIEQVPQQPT
Procedure: as §1, §2
Human Grb2 SH2 domain: The sequence encoding the SH2 domain of human Grb2 (amino acids 58-159) (Lowenstein, E. et al., Cell 70, 431-442 (1992)) was cloned into the BamHI and EcoRI sites of the expression vector pGEX-2T. The SH2 domain including the additional C-terminal amino acids isoleucine-histidine-arginine-aspartate (SEQ ID NO: 25) was cloned by PCR techniques known to those skilled in the art to yield the expressed fusion protein GST-X-Grb2.
as §3, with “ul/well)/wash).” for “ul/well)/wash). 100 ul of 1 mg/ml OPD (o-phenyldiamine, Sigma Chemical Corporation, St. Louis Missouri) in Citrate Buffer was added per well.”

T1 sequence (P27986 321-440): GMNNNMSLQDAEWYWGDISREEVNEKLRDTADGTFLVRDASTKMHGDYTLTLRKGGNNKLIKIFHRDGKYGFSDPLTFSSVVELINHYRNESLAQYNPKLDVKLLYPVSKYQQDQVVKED

Compound | Ki [1] [µM] | IC50 [1] [µM] | Ki [2] [µM] | IC50 [2] [µM]
Cc1nc2sc3c(c2c2[nH][nH]c(=O)c12)CCC1(C3)OCCO1 [Compound 3, 8,8-Ethylenedioxy-2,3,7,8,9,10-hexahydro-4-methyl-1H-benzo[b]thieno[2,3-b]pyrazolo[3,4-d]pyridin-3-one] | > 1000 | > 300 | > 1000 | > 300
Cc1ccc(C(=O)c2ccc(C(=O)c3ccc(CC=O)cc3)cc2)cc1 [Compound 4, 4-[4-(4-Methylbenzoyl)benzoyl]phenylacetaldehyde] | > 1000 | > 300 | > 1000 | > 300
Cc1nnc(SCC2=C(C(=O)O)N3C(=O)[C@@H](NC(=O)C(N)c4ccc(C(=O)O)cc4)[C@H]3SC2)s1 (stereo partly drawn) [Compound 1, 7-[D,L-α-Amino-α-(4-carboxyphenyl)acetamido]-3-[2-(5-methyl-1,3,4-thiadiazolyl)thiomethyl]Δ^3-cephem-4-carboxylic Acid] | > 1000 | > 300 | > 1000 | > 300
N[C@@H](Cc1cc(Br)c(Oc2ccc(O)c(Cc3ccc(O)nn3)c2)c(Br)c1)C(=O)O [Compound 2, L-3,5-Dibromo-3'-(6-oxo-3(1H)-pyridazinylmethyl)-thyronine] | > 1000 | > 300 | > 1000 | > 300
4-acetamido-benzamido-trans-4-methyl-cyclohexyl-N-1-(amino-R-2-(methoxy methyl)-pyrrolidine) carboxamide [Compound 8] | > 1000 | > 300 | 330 | > 300

Continued, values first:

Ki [1] [µM] | IC50 [1] [µM] | Ki [2] [µM] | IC50 [2] [µM] | Compound
> 1000 | > 300 | > 1000 | > 300 | CCCNC(=O)[C@H]1CC[C@H](CNC(=O)/C=C/c2ccc(C=O)cc2)CC1 [Compound 9, 4-formyl-E-cinnamido-trans-4-methyl-cyclohexyl-N-(propyl) carboxamide]
> 1000 | > 300 | > 1000 | > 300 | Cc1nc2sc3c(c2c2c1c(=O)[nH]n2C)CCC1(C3)OCCO1 [Compound 5, 1,4-Dimethyl-8,8-ethylenedioxy-2,3,7,8,9,10-hexahydro-1H-benzo[b]thieno[2,3-b]pyrazolo[3,4-d]pyridin-3-one]
> 1000 | > 300 | > 1000 | > 300 | CCCCCCNC(=O)[C@H]1CC[C@H](CNC(=O)c2ccc([N+](=O)[O-])cc2)CC1 [Compound 7, 4-nitro-benzamido-trans-4-methyl-cyclohexyl-N-hexyl carboxamide]
> 1000 | > 300 | > 1000 | > 300 | Cc1nc2sc3c(c2c2[nH][nH]c(=O)c12)CCCC3 [Compound 10, 2,3,7,8,9,10-Hexahydro-4-methyl-1H-benzo[b]thieno[2,3-b]pyrazolo[3,4-d]pyridin-3-one]

Reference: patent publication EP0727211A1, “Use of src SH2 specific compounds to treat a bone resorption disease” (SMITHKLINE BEECHAM CORPORATION, priority 1995, dated 1996)
